The text below walks through data of US20190022039A1, “COMPOUND HAVING ENHANCING ACTIVITY FOR GLUCAGON-LIKE PEPTIDE-1 RECEPTOR ACTIONS” (AJINOMOTO CO., INC., priority 2016, published 2019).

Broadly, the EC50 is the midpoint of the concentration-response curve.

Molecules are shown by their SMILES.

In one experiment the target is T1, human GLP-1R (Homo sapiens, UniProt P43220).
T1 construct: expressed in transfected cells; host or cells: PEAK RAPID-derived Gα15-trans48 LD stably expressing cells (PRG48), transiently transfected with Lipofectamine 2000
T1 sequence (P43220 24-463): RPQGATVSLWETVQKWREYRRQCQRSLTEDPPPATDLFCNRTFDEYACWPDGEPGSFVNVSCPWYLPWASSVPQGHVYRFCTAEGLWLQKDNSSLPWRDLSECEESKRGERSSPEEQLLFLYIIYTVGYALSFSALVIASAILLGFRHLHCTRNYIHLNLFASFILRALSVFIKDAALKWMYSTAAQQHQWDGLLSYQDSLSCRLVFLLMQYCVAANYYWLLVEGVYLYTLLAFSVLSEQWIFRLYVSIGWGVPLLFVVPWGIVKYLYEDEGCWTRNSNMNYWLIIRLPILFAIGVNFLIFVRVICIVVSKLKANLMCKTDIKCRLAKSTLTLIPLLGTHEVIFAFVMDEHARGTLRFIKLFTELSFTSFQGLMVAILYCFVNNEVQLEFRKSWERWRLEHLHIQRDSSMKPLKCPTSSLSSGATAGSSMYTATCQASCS
The experiment can be described thus: GLP-1 receptor in vitro calcium assay (intracellular free calcium concentration change induced via GLP-1 receptor). Type of experiment: cell-based. The note with it: for EC50: PRG48 cells transfected with human GLP-1R, compound added with 250 pM GLP-1, Ca2+ response ΔF/F, read-out: Ca EC50 value; for GLP-1 receptor action enhancing activity (vs BETP): intensity compared to BETP, activity of BETP as 1. The gist of the method:
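PRG48 cells transiently transfected with human GLP-1R and loaded with calcium dye in HEPES buffer containing probenecid. Compound added together with 250 pM GLP-1; fluorescence (Ex480/Em540) recorded before and after addition. ΔF/F computed and EC50 fitted from it.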

In experiment [1] the test system is KKAy mice. The experiment can be described thus: Blood glucose increase suppressive effect in diabetes model mouse after whey protein and glucose load. In kind it is in vivo. As to conditions: male KKAy mice, 3 mg/kg intraperitoneal. The protocol:
23-week-old male KKAy mice fasted overnight were randomly divided into 2 groups, and whey protein was orally administered to each mouse at 3 g/kg to induce endogenous GLP-1 secretion. At 30 min after whey protein administration, the compound of the present invention (compound 50) or administration medium (vehicle) was intraperitoneally administered to each mouse at 3 mg/kg, glucose was orally administered immediately thereafter at 2 g/kg, blood samples were collected from the tail vein over time, and the blood glucose level was measured.

Experiment [2] deals with isolated rat islets of Langerhans. The experiment can be described thus: Glucose-stimulated insulin secretion in isolated rat islets of Langerhans. In kind it is cell-based. The procedure: The islets of Langerhans were isolated from the pancreas of male Wistar rats at around 10 weeks of age, according to a conventional method and using collagenase and Ficoll-Conray solution (Cryobiology, 2006, 52:90-8), and used for the activity evaluation of the compound.
The isolated islets were precultured in glucose-free Krebs Ringer Bicarbonate-Hepes buffer (KRBH: 129 mM NaCl, 4.7 mM KCl, 5.0 mM NaHCO3, 1.2 mM MgSO4, […], 2.5 mM CaCl2, 10 mM HEPES, pH 7.4) under the conditions of 37° C., 5% CO2 for 30 min and seeded in each well of a 24 well plate by 5 islets. […] The culture supernatant was recovered from each well after culturing for 1 hr, and the concentration of insulin secreted in the supernatant was measured using a commercially available measurement kit (manufactured by Morinaga Institute of Biological Science, Inc.). The insulin secretion amounts under respective stimulation conditions were calculated as secretion amounts relative to the secretion amount at 8.3 mM glucose.

For experiment [3], the system named is KKAy mice. The experiment in a line: Food intake-suppressive effect in diabetes model mouse. In kind it is in vivo. As to conditions: male KKAy mice fasted overnight, 3 mg/kg oral in simulated intestinal fluid, 4 hr after administration, vs simulated intestinal fluid group (FIG. 3). The procedure:
11-week-old male KKAy mice were randomly divided into 2 groups. After fasting overnight, simulated intestinal fluid (containing 10 mM taurocholic acid, 2 mM lecithin, 55 mM maleic acid, 81.6 mM sodium hydroxide, 125 mM sodium chloride), or the compound of the present invention (compound 96) dissolved in the simulated intestinal fluid was orally administered (3 mg/kg), a commercially available feed (CRF-1, manufactured by Oriental Yeast Co., ltd.) was given and changes in the food intake was monitored.

Regarding `CCCCC(CC)CNC(=O)[C@H](CC1CCCCC1)NC(=O)Nc1ccc(NS(=O)(=O)c2ccc(C(C)(C)C)cc2)cc1` (stereo partly drawn) [Compound 50], at human GLP-1R, the EC50 is 0.0068 µM and the “GLP-1 receptor action enhancing activity (vs BETP)” value is reported as 3720. For the same compound, the “blood glucose at the time of peak” value in the experiment on KKAy mice [1] (30 min after whey protein 3 g/kg, glucose 2 g/kg oral, peak 30 min after glucose (FIG. 2A)) was “suppression of blood glucose increase at the time of peak”. Besides, the “blood glucose AUC value” in the experiment with KKAy mice [1] (180 min after glucose administration, p<0.05 vs vehicle (FIG. 2B)) was determined as 734.3 ± 65.9 mg·h/dL. The insulin secretion entry in experiment [2] (30 μM compound 50 alone in buffer containing 8.3 mM glucose, 1 hr) is on record as “did not affect insulin secretion”. In addition, the “increase in insulin secretion amount as compared to 8.3 mM glucose alone” value in experiment [2] (simultaneous addition of 30 μM compound 50 and 1 nM exendin-4, 8.3 mM glucose, 1 hr (FIG. 1)) is given as “about 2 fold”.
Take `CCCCCCNC(=O)[C@@H](Cc1cccnc1)NC(=O)Nc1ccc(NS(=O)(=O)c2ccc(C(C)(C)C)cc2)cc1` [Compound 96]: on human GLP-1R, the EC50 worked out at 0.6 µM and the “GLP-1 receptor action enhancing activity (vs BETP)” value is 42. Further, in the experiment on KKAy mice [3], the cumulative food consumption result is reported as “significant suppression”.
Turning to `Cc1ccc(S(=O)(=O)Nc2ccc(NC(=O)N[C@H](Cc3c[nH]c4ccccc34)C(=O)NCCC3CCCCC3)cc2)cc1` [Compound 47], on human GLP-1R, the EC50 came to 0.12 µM and the “GLP-1 receptor action enhancing activity (vs BETP)” value was 208.
Turning to `Cc1ccc(S(=O)(=O)Nc2ccc(NC(=O)N[C@@H](Cc3c[nH]c4ccccc34)C(=O)OC(C)(C)C)cc2)cc1` [Compound 67], at human GLP-1R, the concentration for a half-maximal effect (EC50) was determined as 0.66 µM and the “GLP-1 receptor action enhancing activity (vs BETP)” value came out at 38.
For `CCCCC(CC)CNC(=O)[C@@H](CC1CCCCC1)NC(=O)Nc1ccc(N(CCCSC)S(=O)(=O)c2ccc(C(C)(C)C)cc2)cc1` (stereo partly drawn) [Compound 111], in that order: 0.0033 µM and 7694.
Turning to `Cc1ccc(S(=O)(=O)Nc2ccc(NC(=O)N[C@@H](CC(C)C)C(=O)OC(C)(C)C)cc2)cc1` [Compound 65], at human GLP-1R, the EC50 worked out at 2 µM and the “GLP-1 receptor action enhancing activity (vs BETP)” value came to 13.
For the compound `CCCCC(CC)CNC(=O)[C@@H](Cc1ccc(Cl)cc1)NC(=O)Nc1ccc(NS(=O)(=O)c2ccc(C(C)(C)C)cc2)cc1` (stereo partly drawn) [Compound 1, (2R)-2-({4-[(4-tert-butylphenyl)sulfonylamino]phenyl}carbamoylamino)-3-(4-chlorophenyl)-N-(2-ethylhexyl)propanamide], the EC50 on human GLP-1R amounted to 0.0043 µM.
For `CC(C)(C)c1ccc(S(=O)(=O)Nc2ccc(NC(=O)N[C@H](CC3CCCCC3)c3nc(C(C)(C)C)no3)cc2)cc1` [Compound 82], on human GLP-1R, the EC50 was found to be 0.016 µM and the “GLP-1 receptor action enhancing activity (vs BETP)” value was 1606.
For `CC(C)CCCC(C)NC(=O)[C@@H](Cc1c[nH]c2ccccc12)NC(=O)Nc1cccc(NS(=O)(=O)c2ccc(C(C)(C)C)cc2)c1` (stereo partly drawn) [Compound 94], in that order: 0.18 µM and 140.
As to `Cc1ccc(S(=O)(=O)Nc2ccc(NC(=O)N[C@H](Cc3ccccc3)C(=O)OC(C)(C)C)cc2)cc1` [Compound 62, tert-butyl (2R)-3-phenyl-2-{[4-(p-tolylsulfonylamino)phenyl]carbamoylamino}propanoate], on human GLP-1R, the EC50 was 0.93 µM and the “GLP-1 receptor action enhancing activity (vs BETP)” value was determined as 27.
As to `CCCCCCNC(=O)[C@@H](Cc1c[nH]c2ccccc12)NC(=O)Nc1ccc(NS(=O)(=O)c2ccc(C)cc2)cc1` [Compound 21], on human GLP-1R, the EC50 was determined as 0.47 µM and the “GLP-1 receptor action enhancing activity (vs BETP)” value worked out at 53.
For `CCCCC(CC)CNC(=O)[C@H](CC(C)C)NC(=O)Nc1ccc(NS(=O)(=O)c2ccc(C(C)(C)C)cc2)cc1` (stereo partly drawn) [Compound 51], in that order: 0.009 µM and 2786.
As for `CCCCCCNC(=O)[C@@H](CCCC)NC(=O)Nc1ccc(NS(=O)(=O)c2ccc(C)cc2)cc1` [Compound 16], at human GLP-1R, the EC50 amounted to 0.52 µM and the “GLP-1 receptor action enhancing activity (vs BETP)” value was 49.
